# Source: paper PMC3722118, “Hellebrin and its aglycone form hellebrigenin display similar in vitro growth inhibitory effects in cancer cells and binding profiles to the alpha subunits of the Na^+/K^+-ATPase” (Molecular Cancer, 2013)
# Read-outs that look alike come from different tables or passages of the source.
# How the values were obtained:
# human α3β1 NaK complex = molecular target: T1, human α3β1 NaK complex (Homo sapiens, UniProt P13637); assay: 3H-ouabain competitive displacement on P. pastoris membranes; assay type: binding; details: for Kd: 3H-ouabain displacement, three independent experiments, read-out: Affinity (nM) α-3 (KD ± SEM); for Selectivity α-1 / α-3: ratio of KD α-1 to KD α-3
# T1 construct: made in house; host or cells: Pichia pastoris strain SMD1165 (membranes)
# Description: (§1) K0.5 was calculated using a one site inhibition model: B/BCG=0 = K0.5/([CG] + K0.5). […] Binding of each cardiac glycoside was estimated in 3 separate experiments.
# (§2) Average KD or Ki values ± SEM for each isoform were calculated. Statistical significance was calculated by the unpaired Students t-test. P values <0.05 were considered significant.
# human α1β1 NaK complex = molecular target: T2, human α1β1 NaK complex (Homo sapiens, UniProt P05023); assay: as above; assay type: binding; details: for Kd: 3H-ouabain displacement, three independent experiments, read-out: Affinity (nM) α-1 (KD ± SEM); for fold higher affinity for α1 than for the α2 and α3 subunits: from Table 2 KD values
# T2 construct: made in house; host or cells: Pichia pastoris strain SMD1165 (membranes)
# Description: as §1, §2
# human α2β1 NaK complex = molecular target: T3, human α2β1 NaK complex (Homo sapiens, UniProt P50993); assay: as above; assay type: binding; details: for Kd: 3H-ouabain displacement, three independent experiments, read-out: Affinity (nM) α-2 (KD ± SEM); for Selectivity α-1 / α-2: ratio of KD α-1 to KD α-2
# T3 construct: made in house; host or cells: Pichia pastoris strain SMD1165 (membranes)
# Description: as §1, §2
# SKMEL-28 melanoma cells = assay: MTT colorimetric in vitro growth inhibition assay; assay type: cell-based, human; details: read-out: IC50 (nM) SKMEL-28
# Outline: (§3)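 Culture: RPMI medium, 10% heat-inactivated fetal calf serum, 4 mM glutamine, antibiotics. Then compound exposure, MTT addition, and spectrophotometric reading of formazan. Growth inhibition is derived from OD of treated relative to control cells.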
# A549 NSCLC cells = assay: MTT colorimetric in vitro growth inhibition assay; assay type: cell-based, human; details: read-out: IC50 (nM) A549
# Outline: as §3
# [1] = tested on: MCF-7 breast cancer cells; assay: MTT colorimetric in vitro growth inhibition assay; assay type: cell-based, human; details: read-out: IC50 (nM) MCF-7
# Outline: as §3
# U373 glioma cells = assay: MTT colorimetric in vitro growth inhibition assay; assay type: cell-based, human; details: read-out: IC50 (nM) U373
# Outline: as §3
# HT-29 colon cancer cells = assay: MTT colorimetric in vitro growth inhibition assay; assay type: cell-based, human; details: read-out: IC50 (nM) HT-29
# Outline: as §3
# Hs683 glioma cells = assay: MTT colorimetric in vitro growth inhibition assay; assay type: cell-based, human; details: read-out: IC50 (nM) Hs683
# Outline: as §3
# [2] = tested on: PC-3 prostate cancer cells; assay: MTT colorimetric in vitro growth inhibition assay; assay type: cell-based, human; details: read-out: IC50 (nM) PC-3
# Outline: as §3
# T98G glioma cells = assay: MTT colorimetric in vitro growth inhibition assay; assay type: cell-based, human; details: read-out: IC50 (nM) T98G
# Outline: as §3
# [3] = tested on: human cancer cells (A549, U373, Hs683, T98G, MCF-7, SKMEL-28, PC-3, HT-29); assay: MTT growth inhibition, mean over the eight human cancer cell lines; assay type: cell-based; details: read-out: IC50 (nM) Mean ± SEM
# Outline: as §3
# [4] = molecular target: T4, purified human α1β1 Na+/K+-ATPase (Homo sapiens, UniProt P05023); assay: Inhibition of NaK activity of purified detergent-soluble complex (Pi release); assay type: biochemical; details: for selectivity in inhibition of NaK activity of all of the purified complexes: comparison of α1β1, α2β1, α3β1 purified complexes
# T4 construct: made in house; host or cells: Pichia pastoris strain SMD1165; detergent-soluble complex purified
# Description: The inhibition of NaK activity of the purified detergent-soluble α1β1, α2β1, and α3β1 complexes by cardiotonic steroids and an analysis of the inhibition data (Ki values) were also performed as previously described. The inhibitors were added to the recombinant enzyme (0.08–0.2 μg of protein) in 400 μl of reaction medium containing 130 mM NaCl, 5 mM KCl, 3 mM MgCl2, 25 mM histidine, pH 7.4, 1 mM EGTA, 0.01 mg/ml SOPS, 0.001 mg/ml cholesterol, and 0.005 mg/ml C12 E8 in 48-well plates. The reaction (37°C for 1 h) was started by the addition of 1mM ATP. Pi release was measured with a malachite green dye to detect the phosphor-molybdate (Pi Color Lock, Innova Biosciences). The percent inhibition V /V0 was calculated for each cardiac glycoside concentration, and Ki values were obtained by fitting the data to the function V /V0 = Ki /([CG] + Ki ) (using Kaleidagraph). V0 and V represent the control rate and rate of NaK-ATPase activity at particular concentrations of cardiac glycosides, [CG], respectively.
# as §2
# [5] = three days of culture, * three independent experiments, ** one experiment, six replicates
structure (smiles),measurement,setting,value
C[C@@H]1O[C@@H](O[C@H]2CC[C@]3(C=O)[C@H]4CC[C@]5(C)[C@@H](c6ccc(=O)oc6)CC[C@]5(O)[C@@H]4CC[C@]3(O)C2)[C@H](O)[C@H](O)[C@H]1O[C@@H]1O[C@H](CO)[C@@H](O)[C@H](O)[C@H]1O [Hellebrin],Kd,human α3β1 NaK complex,175 ± 20 nM
same,Selectivity α-1 / α-3,human α3β1 NaK complex,0.5
same,Kd,human α1β1 NaK complex,86 ± 18 nM
same,fold higher affinity for α1 than for the α2 and α3 subunits,human α1β1 NaK complex,~ 2 fold
same,Kd,human α2β1 NaK complex,218 ± 52 nM
same,Selectivity α-1 / α-2,human α2β1 NaK complex,0.4
same,IC50,"SKMEL-28 melanoma cells; Homo sapiens, SK-MEL-28, 72 h",40 ± 5 nM
same,IC50,"A549 NSCLC cells; Homo sapiens, A549, 72 h",6 ± 1 nM
same,IC50,"[1]; Homo sapiens, MCF7, 72 h",58 ± 12 nM
same,IC50,"U373 glioma cells; Homo sapiens, U373 MG, 72 h",41 ± 2 nM
same,IC50,"HT-29 colon cancer cells; Homo sapiens, HT-29, 72 h",27 ± 4 nM
same,IC50,"Hs683 glioma cells; Homo sapiens, Hs 683, 72 h",7 ± 1 nM
same,IC50,"[2]; Homo sapiens, 72 h",11 ± 1 nM
same,IC50,"T98G glioma cells; Homo sapiens, T98G, 72 h",30 ± 1 nM
same,IC50,"[3]; Homo sapiens, 72 h",28 ± 7 nM
same,Ki,[4],103 ± 7 nM
same,selectivity in inhibition of NaK activity of all of the purified complexes,[4],no selectivity
C[C@]12CC[C@H]3[C@@H](CC[C@]4(O)C[C@@H](O)CC[C@]34C=O)[C@@]1(O)CC[C@@H]2c1ccc(=O)oc1 [Hellebrigenin],Kd,human α3β1 NaK complex,191 ± 23 nM
same,Selectivity α-1 / α-3,human α3β1 NaK complex,0.5
same,Kd,human α1β1 NaK complex,103 ± 19 nM
same,fold higher affinity for α1 than for the α2 and α3 subunits,human α1β1 NaK complex,~ 2 fold
same,Kd,human α2β1 NaK complex,198 ± 51 nM
same,Selectivity α-1 / α-2,human α2β1 NaK complex,0.5
same,IC50,SKMEL-28 melanoma cells; [5],28 ± 9 nM
same,IC50,A549 NSCLC cells; [5],3 ± 1 nM
same,IC50,[1]; [5],42 ± 2 nM
same,IC50,U373 glioma cells; [5],9 ± 1 nM
same,IC50,HT-29 colon cancer cells; [5],9 ± 1 nM
same,IC50,Hs683 glioma cells; [5],6 ± 1 nM
same,IC50,[2]; [5],18 ± 1 nM
same,IC50,T98G glioma cells; [5],9 ± 1 nM
same,IC50,"[3]; mean over eight human cancer cell lines, three days of culture",16 ± 5 nM
same,Ki,"[4]; 37°C, 1 h, 1 mM ATP, read-out: Ki for inhibition of NaK activity of purified human α1β1",46 ± 6 nM
same,selectivity in inhibition of NaK activity of all of the purified complexes,[4],no selectivity
